The record followed here is patent publication EP0080071A2, “2-Imidazolylmethyl-2-phenyl-1,3-dioxolanes, process for their preparation and their use as fungicides” (BAYER AG, priority 1981, dated 1983).

Experiment [1] relates to Drechslera graminea (syn. Helminthosporium gramineum). Kind of experiment: Drechslera graminea test (barley) / seed treatment. Format: in vivo. The following applies: dry seed dressing of infected barley seed; evaluation for stripe disease symptoms ca. 3 weeks after sowing; compared with the prior-art comparison substances. The source says: Drechslera graminea-Test (Gerste) / Saatgutbehandlung (syn. Helminthosporium gramineum)
Die Anwendung der Wirkstoffe erfolgt als Trockenbeizmittel. Sie werden zubereitet durch Abstrecken des jeweiligen Wirkstoffes mit Gesteinsmehl zu einer feinpulvrigen Mischung, die eine gleichmäßige Verteilung auf der Saatgutoberfläche gewährleistet.
Zur Beizung schüttelt man das infizierte Saatgut 3 Minuten lang mit dem Beizmittel in einer verschlossenen Glasflasche.
Das Saatgut setzt man in gesiebter, feuchter Standarderde eingebettet, in verschlossenen Petrischalen im Kühlschrank 10 Tage lang einer Temperatur von 4°C aus. Dabei wird die Keimung der Gerste und gegebenenfalls auch der Pilzsporen eingeleitet. Anschließend sät man die vorgekeimte Gerste mit 2 x 50 Korn 3 cm tief in eine Standarderde und kultiviert sie im Gewächshaus bei einer Temperatur von ca. 18°C in Saatkästen, die täglich 15 Stunden dem Licht ausgesetzt werden.
Ca. 3 Wochen nach der Aussaat erfolgt die Auswertung der Pflanzen auf Symptome der Streifenkrankheit.

The test system of another experiment is Podosphaera leucotricha. Kind of experiment: Podosphaera test (apple) / protective. It is filed as in vivo. The note with it: protective spray on young apple plants; evaluation 9 days after inoculation; compared with the prior-art comparison substances. An excerpt:
Podosphaera-Test (Apfel) / protektiv
• Lösungsmittel: 4,7 Gewichtsteile Aceton • Emulgator: 0,3 Gewichtsteile Alkylarylpolyglykolether
Zur Herstellung einer zweckmäßigen Wirkstoffzubereitung vermischt man 1 Gewichtsteil Wirkstoff mit den angegebenen Mengen Lösungsmittel und Emulgator und verdünnt das Konzentrat mit Wasser auf die gewünschte Konzentration.
Zur Prüfung auf protektive Wirksamkeit bespritzt man jungePflanzen mit der Wirkstoffzubereitung bis zur Tropfnässe. Nach Antrocknen des Spritzbelages werden die Pflanzen durch Bestäuben mit Konidien des Apfelmehltauerregers (Podosphaera leucotricha) inokuliert.
Die Pflanzen werden dann im Gewächshaus bei 23°C und einer relativen Luftfeuchtigkeit von ca. 70 % aufgestellt.
9 Tage nach der Inokulation erfolgt die Auswertung.

Take `Cl.FC(F)(F)c1cc(Cl)ccc1C1(Cn2ccnc2)OCCO1` [Beispiel 1, 2-(4-Chlor-2-trifluormethyl)-phenyl-2-(imidazol-1-yl)-methyl-1,3-dioxolan-hydrochlorid]: the Wirksamkeit entry in experiment [1] is recorded as “deutliche überlegenheit in der Wirksamkeit gegenüber dem Stand der Technik”; in the experiment with Podosphaera leucotricha, “deutliche Überlegenheit in der Wirksamkeit gegenüber dem Stand der Technik”.
